Data published in patent US12083084B2, “Method for enhancing energy production and metabolism in cells” (REPLICON HEALTH OY, priority 2013, dated 2024).
Marks after values point to notes of the source that are not given here.

Experiments:
peripheral leukocytes = assay: Gene expression from in vivo blood samples (TRAC); set-up: species or system human; settings: for AOX1 gene expression, Change % / CYP1A2 gene expression, Change % / CYP2B6 gene expression, Change % / CYP2C9 gene expression, Change % / CYP3A4 gene expression, Change % / G6PD gene expression, Change % / GPD2 gene expression, Change % / GRHPR gene expression, Change % / HO-1 gene expression, Change % / MT-CO1 gene expression, Change % / MT-CYB gene expression, Change % / PGC-1a gene expression, Change %: S1 and S9 combined, vs control
Procedure: In the above 4.5 day experiment samples of peripheral leukocytes were collected from S1 and S9 in fasting condition (0 h), and also 1 hour (1 h) after taking 75 grams of glucose (Glutole, Biofile Pharma, 330 ml) for glucose tolerance test. Additional gene expression measurement was done from a separate 12 hour treatment for S1 and S9. In the 12 h test only two last doses of DGAcs were administered, first dose 12 h earlier than the blood sample, and the last/second dose 2.5 h earlier in the same morning (like in 4.5 day experiment). For the statin group, S10 and S11, only one gene expression measurement was done in two hours after the fasting blood sample. Leukocytes were immediately separated from blood samples, and after separation immediately lysed by stop solution and stored in freezer according to instructions by the service provider.
For S1 and S9 there were altogether 4 measurement points for gene expression, and only 3 repeats for each measurement. Results are presented in Table 6 below; changes of gene expressions compared to the control from peripheral leukocytes are presented. The Gene Expression analyses was conducted using TracTechnology by PlexPress Ltd in Helsinki. The TRAC data presented in Table 6 has been generated according to process instructions with quality tested instruments and reagents. PlexPress Quality Management System is set up according to the ISO 9001 standard. P-values are from t-distribution of a one sided test of deviation from control average, and are presented only when below 10%.

[1] = Hepatic free glycerol after 3 week feeding; type: in vivo, rat
Excerpt: From the above experiment altogether 12 rats were chosen from 0.1 g/kg/day DGAcs group (N=6) and zero control (N=6) for a measurement of free glycerol from liver samples. Liver samples contained also blood entering the liver from other tissues, thus on top of hepatic tissues the samples reflect also the metabolic situation in other tissues of the body than just the liver.
In this experiment nutrition intake, except of course for DGAcs, was controlled to be exactly the same during the experimental day, and three day before the experiment. For AA rats, that are used to alcohol but didn't receive any alcohol in 3 day before the experiment, catabolic redox-activity in the cytosol was controlled by giving rats ethanol (equaling 1.2 per mille blood alcohol concentration, which represents only mild alcohol intoxication to the AA rats). The rate of ethanol oxidation remained the same in all groups.
Experimental session started at 8:00 to 9:00 am. To diminish possible pain during the experiments, all animals were injected subcutaneously with buprenorphine (0.01 mg/kg) a few minutes before the blood samples. During the experimental session no difference in other metabolic activity, e.g. rate of ethanol oxidation, between the control and treatment group was detected from blood samples. Immediately after the last blood sample, the animals were anesthetized with pentobarbital (40 mg/kg IP, 1% [wt/vol] in saline). Thereafter (5-10 minutes), liver pieces were quickly (within 2-4 seconds) excised and freeze-clamped. Liver samples were stored at […] until glycerol determination. […] The resulting supernatants were used for free glycerol measurement with an enzymatic end point commercial assay kit (Boehringer-Mannheim, R-Biopharm, Darmstadt, Germany) according to the manufacturer's protocol except that the assays were modified for use with small volumes of supernatant using a 96-well microplate reader (Labsystems Multiskan RS, Helsinki, Finland). […]

[2] = 12 hour + 0 h test (two doses, fasting)
[3] = 12 hour + 1 h test (1 h after 75 g glucose)
[4] = 4.5 day + 1 h test (1 h after 75 g glucose)

O.O.O=C([O-])[C@H](O)CO.O=C([O-])[C@H](O)CO.[Ca+2] [DGAcs, D-glyceric acid, calcium salt dehydrate]
AOX1 gene expression, Change % (peripheral leukocytes; [2]): −6% | CYP1A2 gene expression, Change % (peripheral leukocytes; [2]): 100% | CYP2B6 gene expression, Change % (peripheral leukocytes; [2]): −14% | CYP2C9 gene expression, Change % (peripheral leukocytes; [2]): 8% | CYP3A4 gene expression, Change % (peripheral leukocytes; [2]): −17% | G6PD gene expression, Change % (peripheral leukocytes; [2]): 3% | GPD2 gene expression, Change % (peripheral leukocytes; [2]): 24% | GRHPR gene expression, Change % (peripheral leukocytes; [2]): −26% | HO-1 gene expression, Change % (peripheral leukocytes; [2]): −31% | MT-CO1 gene expression, Change % (peripheral leukocytes; [2]): −10% | MT-CYB gene expression, Change % (peripheral leukocytes; [2]): −2% | PGC-1a gene expression, Change % (peripheral leukocytes; [2]): −3% | AOX1 gene expression, Change % (peripheral leukocytes; [3]): 8% | CYP2B6 gene expression, Change % (peripheral leukocytes; [3]): 8% | CYP2C9 gene expression, Change % (peripheral leukocytes; [3]): 18% | CYP3A4 gene expression, Change % (peripheral leukocytes; [3]): −45% | G6PD gene expression, Change % (peripheral leukocytes; [3]): 18% | GPD2 gene expression, Change % (peripheral leukocytes; [3]): 23% | GRHPR gene expression, Change % (peripheral leukocytes; [3]): 6% | HO-1 gene expression, Change % (peripheral leukocytes; [3]): −54% | MT-CO1 gene expression, Change % (peripheral leukocytes; [3]): 4% | MT-CYB gene expression, Change % (peripheral leukocytes; [3]): 2% | PGC-1a gene expression, Change % (peripheral leukocytes; [3]): −21% | CYP1A2 gene expression, Change % (peripheral leukocytes; 4.5 day + 0 h test (fasting)): 62% | CYP2B6 gene expression, Change % (peripheral leukocytes; 4.5 day + 0 h test (fasting)): 73% | CYP2C9 gene expression, Change % (peripheral leukocytes; 4.5 day + 0 h test (fasting)): 0% | CYP3A4 gene expression, Change % (peripheral leukocytes; 4.5 day + 0 h test (fasting)): 67% | G6PD gene expression, Change % (peripheral leukocytes; 4.5 day + 0 h test (fasting)): 9% | GPD2 gene expression, Change % (peripheral leukocytes; 4.5 day + 0 h test (fasting)): 31% | GRHPR gene expression, Change % (peripheral leukocytes; 4.5 day + 0 h test (fasting)): 70% | HO-1 gene expression, Change % (peripheral leukocytes; 4.5 day + 0 h test (fasting)): 82% | MT-CO1 gene expression, Change % (peripheral leukocytes; 4.5 day + 0 h test (fasting)): 24% | MT-CYB gene expression, Change % (peripheral leukocytes; 4.5 day + 0 h test (fasting)): 22% | CYP1A2 gene expression, Change % (peripheral leukocytes; [4]): 14% | CYP2B6 gene expression, Change % (peripheral leukocytes; [4]): 147% | CYP2C9 gene expression, Change % (peripheral leukocytes; [4]): 46% | CYP3A4 gene expression, Change % (peripheral leukocytes; [4]): 69% | G6PD gene expression, Change % (peripheral leukocytes; [4]): −13% | GPD2 gene expression, Change % (peripheral leukocytes; [4]): 0% | GRHPR gene expression, Change % (peripheral leukocytes; [4]): 100% | HO-1 gene expression, Change % (peripheral leukocytes; [4]): 110% | MT-CO1 gene expression, Change % (peripheral leukocytes; [4]): 23% | MT-CYB gene expression, Change % (peripheral leukocytes; [4]): 21% | PGC-1a gene expression, Change % (peripheral leukocytes; [4]): 30% | CYP3A4 gene expression vs control (peripheral leukocytes; S10, statin group): statistically significantly up regulated | increase in HO-1 gene expression (peripheral leukocytes; S10, statin group (halved dose of Simvastatin), 4.5 day): 160% | AOX1 gene expression increased by (peripheral leukocytes; S10, statin group, 4.5 day panel): 56% | glycerol levels increased compared to the control ([1]; 0.1 g/kg group): 59% | increase in the concentration of free glycerol compared to the control samples ([1]; 0.1 g/kg group): roughly 0.17 g/kg | Free glycerol concentration (hepatic, including extracellular matrix) ([1]; 0.1 g/kg per day in diet for 3 weeks, AA rats, n = 6, no acute dose): 4.88 +/− 1.21 (6) * Micromoles Per Gram Wet Weight Tissue
